# In patent publication US20210128645A1, “INTESTINAL MICROBE HAVING D-PSICOSE-RESPONSIVE PROLIFERATION” (priority 2018, published 2021):
# What was measured:
# [1] = system: male C57BL/6J mice fed a high-fat diet; experiment: High-fat diet mouse experiment with D-psicose drinking water: body weight gain and fasting blood glucose; format: in vivo
# Method: Eight-week-old (week 0) male C57BL/6J mice (total 4 groups, n=7) were fed a high-fat diet and tap water (control) or D-psicose-containing water, or antibiotics in addition to these (Control+Abx, D-psicose+Abx). During the experimental period, the body weight of the mice, the water intake, and the food intake were measured weekly, and the feces were collected. The samples at weeks 0 and 5 were used for analysis. The fasting blood glucose level was measured at week 9. The mice were dissected after 11 weeks.
# (§1) The average (g) of the body weight gain at week 5 (13 weeks old) from start of rearing (8 weeks old) is shown (n =7). The error bars represent standard deviations (SDs). Control (white): high-fat diet+tap water, D-psicose (black): high-fat diet +5.0% D-psicose, Abx−: without antibiotic treatment, Abx+: with antibiotic treatment. The antibiotics were 0.1% ampicillin sodium, 0.1% neomycin sulfate, and 0.05% vancomycin hydrochloride. The Student's t-test was used in significance testing. A p-value of 0.05 or less is considered significant and indicated by*in the figure.
# as §1, with “15-hour fasting blood glucose level (mg/dl)” for “average (g) of the body weight gain”, “9 after” for “5 (13 weeks old) from”, “rearing” for “rearing (8 weeks old)”, “(n=7).” for “(n =7).”
# (§2) Twenty eight 6-week-old male C57BL/6J mice (CLEA Japan, Inc.) were provided and fed a normal diet CE-2 (CLEA Japan, Inc.) and tap water for 2 weeks, followed by acclimation. The mice were divided into 4 groups (7 mice per group): (i) tap water-administered group, (ii) D-psicose water-administered group, (iii) tap water and antibiotic-administered group, and (iv) D-psicose water and antibiotic-administered group. The experiment was started at 8 weeks old. For food, the mice in all groups were freely fed a high-fat diet HFD32 (CLEA Japan, Inc.). […] During the experimental period, the body weight of the mice, the water intake, and the food intake were measured weekly, and the feces were collected. […] At week 9 (17 weeks old) from the start of the experiment, the fasting blood glucose level, an indicator of diabetes, was measured. After 15-hour fasting, the side of the tail was pricked with a syringe needle (Terumo Corporation), and the blood glucose level was measured by using a glucometer (Nipro StatStrip XP3). […]
# [2] = system: genus Atopobium (intestinal microbe, SEQ ID NO:1 OTU); experiment: 16S rRNA gene analysis of intestinal microbiota in fecal samples of D-psicose-administered mice; format: in vivo, mouse; details: 5.0% D-psicose water, high-fat diet, fecal samples at week 5, vs tap water control (FIG. 4)
# Method: The relative abundance of the genus Atopobium in the fecal samples at week 5 from start of rearing is shown. The relative abundance is calculated as the percentage of the genus Atopobium in the total reads. Control (white): high-fat diet+tap water, D-psicose (black): high-fat diet +5.0% D-psicose. The Mann-Whitney U test was used in significance testing. A p-value of 0.001 or less is considered significant and indicated by P<0.001: in the figure.
# as §2, with “old.” for “old. For food, the mice in all groups were freely fed a high-fat diet HFD32 (CLEA Japan, Inc.).”
smiles,measurement,setting,value
O=C(CO)[C@H](O)[C@H](O)[C@H](O)CO [D-psicose],body weight gain due to the intake of high-fat diet,"[1]; 5.0% (w/v) D-psicose in drinking water, without antibiotic treatment, week 5, vs tap water control (FIG. 2)",significantly suppresses the body weight gain
same,suppression of body weight gain,"[1]; 5.0% D-psicose water plus antibiotics (0.1% ampicillin sodium, 0.1% neomycin sulfate, 0.05% vancomycin hydrochloride), intestinal microbes removed (FIG. 2)",not observed
same,"fasting blood glucose level, difference between groups","[1]; 5.0% D-psicose water plus antibiotics vs tap water plus antibiotics, 15-hour fasting, week 9 (FIG. 3)",no significant difference
same,fasting blood glucose level,"[1]; 5.0% D-psicose water, without antibiotics, 15-hour fasting, week 9, vs tap water control (FIG. 3)",significantly reduces the blood glucose level
same,"growth (relative abundance) of the intestinal microbe, genus Atopobium, in feces",[2],significantly grows
